Read-outs that look alike come from different tables or passages of the source.
What was measured:
[1] = tested on: A549 human alveolar basal epithelial cells; assay: MTT cell viability and proliferation assay, A549 cells; format: cell-based
Procedure: (§1) In order to study the molecular biology effects of synthesized spiropyrrolidine heterocyclic hybrids, we have used the in vitro toxicology tests and for that, two different cell types, each of cancer and non-cancer origin were employed. The non-cancer cell lines include the L929 mouse fibroblasts and MCF10 breast cells, while the cancer cell lines are A549 human alveolar basal epithelial cells and Jurkat human T lymphocyte cells. […] All the biological studies were carried by selecting Camptothecin (CPT) as a positive control and the cells of no treatment as the negative control. The reason for selecting this particular compound as a positive control is that it is a well-known anticancer agent and acts by the mechanism of topoisomerase I inhibition along with the DNA cleavage, subsequent inhibition of litigation, and finally leads to DNA strand breaks. The detailed procedures for the cell culturing and assay protocols were mentioned elaborately in our earlier publications (Bwatanglang et al., [2016a],[b]; Kumar et al., [2018]). Each experiment was repeated thrice and the results expressed as the mean ± standard deviation of all the data values. From the graph, the ^* and ^** corresponds to p < 0.05 and p < 0.01 vs. the untreated-control measurements.
(§2) Also, the loss of viability seems to be increased with an increase in the concentration and incubation period and this provides the preliminary information that the tested compounds are maintaining some levels of therapeutic behavior toward the cancer cells and if it can be guided carefully, can lead to the anticancer activity. […] This difference in the sensitivity of two cancer cells to the same testing compound can be attributed to the changes in the resistive response of each cell types which is supported by the intracellular protein mechanisms (Mohammad et al., [2014]; Bwatanglang et al., [2017]). Since the amount of intracellular proteins secreted by the cells are unique to each individual cell type and so in that way some cells may react very fast as compared to the others. Also, the efficiency of any chemotherapeutic agent is decided by its ability to reduce the cell count at the earliest possible time and in that way we have identified the A549 cells to be the highly responsive cell type to the compound 5e over a 24 h period as compared to the other compounds, cells, and time periods. The visual observation of cells by means of microscopic observation also be confirming for a decrease in the number of cells for the compound 5e treated cells as against the positive control of CPT (30 μM) and negative control of without any treatment (Figures S11, S11a). […] In a general way, our interest is with the therapeutic agent of higher efficiency at the shortest exposure period and so we carried the following mechanistic studies linked to the cell death for the compound 5e at the 24 h exposure period only.

[2] = tested on: A549 cells; assay: Apoptosis assay (PI / Annexin V-FITC) in A549 cells; format: cell-based, human; details: for live cells: lower left quadrant; for apoptotic cells: lower right quadrant; for late apoptotic or early necrosis cells: upper right quadrant; for cells experiencing the apoptotic pathway: A549, 48 h incubation (Figure S12)
Procedure: as §1
The compound 5e induced apoptotic pathway for A549 treated cells over a 24 h period is compared against the positive (CPT, 30 μM) and negative controls and the results are shown in Figure 3. Similarly, the apoptosis study over the 48 h exposure period is shown in the supporting information of Figure S12. As compared to the behavior of cells shown in Figures 3A-1,B-1, the compound 5e treated cells (C-1) are experiencing a significant amount of apoptotic pathway. […] These numbers for the compound 5e treated cells are getting shifted to 39% of live cells, 40% apoptotic, and 18% late apoptotic or early necrosis pathways. The observation of only 9% apoptotic cells for the CPT treated cells while 40% for the 5e treated cells provides a preliminary indication of the way of handling the cancer cells by the compound 5e. Since the CPT acts directly onto the cancer cells and responsible for the accidental or irreversible pathway of reducing the cancer cell number and however, the compound 5e works in a systematic way and induces the cancer cell death almost similar to CPT. […] Since the cells which are experiencing the apoptotic pathway can be reversible and in that way the healthy normal cells can be reverted to their normal stage and at the same time the cancer cells can be molded to the late apoptotic or early necrosis pathways by applying some physiological changes to the cells.
Figure 3 Comparison of the apoptosis assay results for 5e treated cells along with the CPT treated and untreated cells over 24 h period for A549 cells. From the figure, A-1 & A-2 corresponds to the negative control, B-1 & B-2 for the positive control of CPT, and C-1 & C-2 for our testing sample 5e.

[3] = tested on: caspases in A549 cells; assay: Caspase activity by fluorescence microscopy in A549 cells; format: cell-based, human; details: A549, 24 h, 5e at IC50, compared with CPT treated cells (Figure 4B)
Procedure: as §1, with “The detailed procedures for the cell culturing and assay protocols were mentioned elaborately in our earlier publications (Bwatanglang et al., [2016a],[b]; Kumar et al., [2018]).” left out, “From the graph, the ^* and ^** corresponds to p < 0.05 and p < 0.01 vs. the untreated-control measurements.” left out
Based on the results provided by the apoptotic assay, compound 5e was further tested toward the role of caspases as these are the proteins which get released in response to the specific death stimuli. […] Similarly, the observation of no such green fluorescence in the cytoplasm of cells shown in Figure 4A means that there is no initiation of such pathways in that particular culture.

[4] = tested on: Jurkat human T lymphocyte cells; assay: MTT cell viability and proliferation assay, Jurkat cells; format: cell-based; details: for IC50: Homo sapiens, MTT
Procedure: as §1, §2

[5] = MTT cell viability assay, non-cancer L929 cells; format: cell-based; details: mouse, L929 mouse fibroblast cells (non-cancer)
Procedure: as §1, with “measurements. […]” for “measurements.”

[6] = MTT cell viability assay, non-cancer MCF10 cells; format: cell-based; details: human, MCF10 breast cells (non-cancer)
Procedure: as §1, with “measurements. […]” for “measurements.”

[7] = 24 h incubation, read-out: IC50 μM (24 h) A549
[8] = 48 h incubation, read-out: IC50 μM (48 h) A549
[9] = A549, 24 h, 5e at IC50 (55 μM), CPT 30 μM
[10] = 24 h incubation, read-out: IC50 μM (24 h) Jurkat
[11] = 48 h incubation, read-out: IC50 μM (48 h) Jurkat

Row | IC50 [1, 7] | IC50 [1, 8] | IC50 [4, 10] | IC50 [4, 11] | SMILES | other results
1 | 55.2 ± 2.15 µM | 20.5 ± 3.6 µM | – | – | COc1ccc(C2C([N+](=O)[O-])C(Cc3ccc(O)cc3)N(C)C23C(=O)c2cccc4cccc3c24)cc1 (stereo not shown) [5e, Spiro[acenaphthene-2′.2-pyrrolidin]-1′-one] | live cells [2, 9]: 39%; apoptotic cells [2, 9]: 40%; late apoptotic or early necrosis cells [2, 9]: 18%; cells experiencing the apoptotic pathway [2]: 88%; caspase release (green fluorescence in cytoplasm) [3]: higher than the corresponding cells shown in Figure 4B
2 | – | – | – | – | CN1C(Cc2ccc(O)cc2)C([N+](=O)[O-])C(c2cccc([N+](=O)[O-])c2)C12C(=O)c1cccc3cccc2c13 (stereo not shown) [5f, Spiro[acenaphthene-2′.2-pyrrolidin]-1′-one] | loss of cell viability ([4]; highest concentration of 100 μM, 48 h): 90%
3 | 84.2 ± 4.2 µM | 68.5 ± 3.1 µM | 65.6 ± 2.1 µM | 31.4 ± 2.3 µM | CN1C(Cc2ccc(O)cc2)C([N+](=O)[O-])C(c2ccccc2)C12C(=O)c1cccc3cccc2c13 (stereo not shown) [C00001] | –
4 | 79.5 ± 3.15 µM | 36.2 ± 4.5 µM | 82.4 ± 4 µM | 52.2 ± 3.5 µM | CN1C(Cc2ccc(O)cc2)C([N+](=O)[O-])C(c2ccc(Br)cc2)C12C(=O)c1cccc3cccc2c13 (stereo not shown) [C00002] | –
5 | 77.3 ± 4.56 µM | 52.3 ± 2.2 µM | 63.2 ± 3.2 µM | 59.5 ± 4.1 µM | CN1C(Cc2ccc(O)cc2)C([N+](=O)[O-])C(c2ccc(Cl)cc2)C12C(=O)c1cccc3cccc2c13 (stereo not shown) [C00003] | –
6 | 82.1 ± 2.55 µM | 70.2 ± 2.8 µM | 78.2 ± 2.6 µM | 47.5 ± 3.8 µM | Cc1ccc(C2C([N+](=O)[O-])C(Cc3ccc(O)cc3)N(C)C23C(=O)c2cccc4cccc3c24)cc1 (stereo not shown) [C00004] | –
7 | – | – | 81.2 ± 3.1 µM | 61.2 ± 4.6 µM | COc1ccc(C2C([N+](=O)[O-])C(Cc3ccc(O)cc3)N(C)C23C(=O)c2cccc4cccc3c24)cc1 (stereo not shown) [C00005] | –
8 | – | – | – | – | CC[C@@]1(O)C(=O)OCc2c1cc1n(c2=O)Cc2cc3ccccc3nc2-1 [CPT, Camptothecin] | mortality at 30 μM [5]: ~50%; mortality at 30 μM [6]: ~50%; M2 (cells experiencing the apoptotic pathway) [2, 9]: 48%; live cells [2, 9]: 45%; apoptotic cells [2, 9]: 9%; late apoptotic or early necrosis cells [2, 9]: 36%; cells experiencing the apoptotic pathway [2]: 63%

Row | SMILES | IC50 [1, 7] | IC50 [1, 8] | IC50 [4, 10] | IC50 [4, 11] | other results
9 | CN1C(Cc2ccc(O)cc2)C([N+](=O)[O-])C(c2cccc([N+](=O)[O-])c2)C12C(=O)c1cccc3cccc2c13 (stereo not shown) [C00006] | 70.7 ± 3.45 µM | 41.2 ± 2.4 µM | 92.5 ± 2.8 µM | 62.5 ± 4.4 µM | –
